From ChEMBL document CHEMBL1201862, “PubChem BioAssay data set” (2004)
Calls of active or inactive are those of the source.

How the values were obtained:
[1] = system: HEK293; test: cytotoxicity in HEK293T NF-kB-Luc cells, SAR follow-up, cytotoxicity control for NF-kB activator project, cell-based, resazurin fluorescence (AID 493251); type: functional; conditions: Homo sapiens
[2] = system: HEK293; test: SAR Analysis of small molecule inhibitors of T-cell specific antigen receptor-induced NF-kB activation in a HEK-293T cell line using a luminescence assay - Set 2. [Related pubchem assays (depositor defined):AID435003, AID435012, AID489026]; type: functional, cell-based; conditions: Homo sapiens
[3] = system: HEK293; test: PMA/Ionomycin induced NF-kB luciferase assay in 293- NF-kB-Luc stable cells. [Related pubchem assays: 1299, 1270, 1295, 1375, 1287, 1281, 1293, 1291, 1289, 1280, 465, 1364, 1282, 1372, 1365, 1370, 1367, 1366, 1269, 1373, 1292, 1290, 1302, 1371, 1283, 1271, 1294, 1374, 1368, 1369 ]; type: functional, cell-based; conditions: Homo sapiens
[4] = system: HEK293; test: TNF Induced NF-kB Luciferase in 293-NF-kB-Luc Stable Cells. [Related pubchem assays: 1266, 1299, 1269, 1373, 1292, 1290, 1302, 1371, 1283, 1270, 1295, 1271, 1375, 1294, 1374, 1281, 1293, 1291, 1289, 1280, 465, 1368, 1364, 1282, 1372, 1365, 1369, 1370, 1367, 1366 ]; type: functional, cell-based; conditions: Homo sapiens
[5] = target: Luciferin 4-monooxygenase (Photinus pyralis, UniProt P08659); test: In vitro luciferase assay using purified luciferase. [Related pubchem assays: 1299, 1270, 1295, 1375, 1287, 1281, 1293, 1291, 1289, 1280, 465, 1364, 1282, 1372, 1365, 1370, 1367, 1366, 1266, 1373, 1292, 1290, 1302, 1371, 1283, 1271, 1294, 1374, 1368, 1369 ]
Sequence of Luciferin 4-monooxygenase (P08659 whole entry): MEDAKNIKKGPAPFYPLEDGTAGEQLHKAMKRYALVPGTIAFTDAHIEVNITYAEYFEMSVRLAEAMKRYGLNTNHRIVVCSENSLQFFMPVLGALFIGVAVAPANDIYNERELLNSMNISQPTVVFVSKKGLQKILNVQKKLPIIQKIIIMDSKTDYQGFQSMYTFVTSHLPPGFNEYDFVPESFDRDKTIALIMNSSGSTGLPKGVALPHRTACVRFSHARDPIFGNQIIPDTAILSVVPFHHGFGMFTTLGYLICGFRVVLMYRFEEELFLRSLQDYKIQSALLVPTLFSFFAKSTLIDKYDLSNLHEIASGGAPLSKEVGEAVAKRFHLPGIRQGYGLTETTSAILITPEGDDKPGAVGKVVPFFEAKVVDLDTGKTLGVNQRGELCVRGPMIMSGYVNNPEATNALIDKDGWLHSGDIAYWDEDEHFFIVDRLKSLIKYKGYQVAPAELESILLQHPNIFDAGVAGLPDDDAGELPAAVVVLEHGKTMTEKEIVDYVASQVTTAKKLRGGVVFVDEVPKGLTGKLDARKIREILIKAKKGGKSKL

[6] = system: HEK293; test: PMA/Ionomycin-induced IL-8 production in HEK293- NF-kB-Luc stable cells. [Related pubchem assays: 1299, 1295, 1375, 1287, 1281, 1293, 1291, 1289, 1280, 465, 1364, 1282, 1372, 1365, 1367, 1366, 1266, 1269, 1373, 1292, 1290, 1302, 1371, 1283, 1271, 1294, 1374, 1368, 1369 ]; type: functional, cell-based; conditions: Homo sapiens
[7] = system: HEK293; test: Cytotoxicity assay in HEK293 cells. [Related pubchem assays (depositor defined):AID1266, AID1269, AID1270, AID1271, AID1280, AID1281, AID1282, AID1283, AID1287, AID1289, AID1290, AID1291, AID1292, AID1293, AID1294, AID1295, AID1299, AID1302, AID1364, AID1365, AID1366, AID1367, AID1369, AID1370, AID1371, AID1372, AID1373, AID1374, AID1375, AID1384 …; type: functional, cell-based; conditions: Homo sapiens
[8] = system: Jurkat; test: SAR Analysis of small molecule inhibitors of T-cell specific antigen receptor-induced NF-kB activation in a Jurkat cell line using a luminescence assay - Set 2. [Related pubchem assays (depositor defined):AID435003, AID435012, AID465]; type: functional, cell-based; conditions: Homo sapiens
[9] = target: Eukaryotic translation initiation factor 4H (Homo sapiens, UniProt Q15056); test: human eIF4H binding inhibitors, primary screen, translation initiation inhibitor project, biochemical, uHTS, fluorescence polarization (AID 2012)
[10] = target: Polyadenylate-binding protein 1 (Homo sapiens, UniProt P11940); test: PABP poly(A) RNA binding inhibitors, primary screen, biochemical, fluorescence polarization, uHTS (AID 2014)
Sequence of Polyadenylate-binding protein 1 (P11940 whole entry): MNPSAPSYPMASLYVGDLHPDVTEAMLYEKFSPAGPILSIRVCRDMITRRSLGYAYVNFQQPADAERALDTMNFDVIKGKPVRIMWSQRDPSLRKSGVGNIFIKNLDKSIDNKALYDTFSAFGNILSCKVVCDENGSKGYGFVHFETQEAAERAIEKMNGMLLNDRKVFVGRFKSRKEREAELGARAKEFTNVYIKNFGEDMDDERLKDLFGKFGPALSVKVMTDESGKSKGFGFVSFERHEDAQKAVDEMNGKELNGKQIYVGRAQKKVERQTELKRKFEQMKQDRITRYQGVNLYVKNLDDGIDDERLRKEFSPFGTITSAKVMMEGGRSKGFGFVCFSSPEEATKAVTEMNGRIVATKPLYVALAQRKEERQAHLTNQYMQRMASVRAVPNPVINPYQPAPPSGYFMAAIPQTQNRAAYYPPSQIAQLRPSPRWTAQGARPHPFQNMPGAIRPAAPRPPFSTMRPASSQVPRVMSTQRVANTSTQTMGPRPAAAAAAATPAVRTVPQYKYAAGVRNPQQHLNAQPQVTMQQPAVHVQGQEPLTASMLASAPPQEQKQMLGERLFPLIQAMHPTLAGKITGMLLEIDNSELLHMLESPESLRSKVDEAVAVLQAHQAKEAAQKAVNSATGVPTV

[11] = target: Protein S100-A4 (Homo sapiens, UniProt P26447); test: S100A4-myosin IIA binding inhibitor potency, dose response, biochemical, fluorescence polarization, cherry-picked hits (AID 687001); type: functional
Sequence of Protein S100-A4 (P26447 whole entry): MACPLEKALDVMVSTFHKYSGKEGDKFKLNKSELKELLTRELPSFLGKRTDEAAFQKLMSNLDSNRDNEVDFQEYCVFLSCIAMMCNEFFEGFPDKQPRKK

Row | Structure (SMILES) | IC50 [1] | IC50 [2] | EC50 [3] | EC50 [4] | EC50 [5] | EC50 [6] | EC50 [7] | IC50 [8] | IC50 [9] | IC50 [10] | AC50 [11]
1 | CCOc1ccc(NC(=O)c2ccc([N+](=O)[O-])o2)cc1 | 50.6 µM (inactive) | 39.9 µM (inactive) | 2.77 µM (active) | > 8 µM (not active) | > 8 µM (not active) | > 8 µM (not active) | > 8 µM (inactive) | 38.9 µM (inactive) | – | – | –
2 | Cc1cc2cc(CNC(=O)Nc3ccc(Cl)c(Cl)c3)ccc2n1C | – | – | – | – | – | – | – | – | 5.7 µM (active) | 4.53 µM (active) | 1.74 µM (active)
